According to patent US9005670B2, “Use of histone acetyltransferase inhibitors as novel anti-cancer therapies” (The Johns Hopkins University, priority 2010, dated 2015):
Entries after “also recorded” stand apart in the source; their conditions may differ.

Tests used:
[1] = tested on: histone H3 and H4 acetylation in C3H 10T1/2 mouse fibroblasts; test: histone acetylation Western blot in mouse cells; assay type: cell-based
Description: Histones in mammalian cells show characteristic rates of turnover of acetylation, with a majority showing slower rates and a very minor fraction showing very fast turnover. This latter fraction has been associated with gene activation, and is defined by rapid hyperacetylation in the presence of deacetylase inhibitors such as Trichostatin A (TSA). In addition to SDS gels (FIG. 9A), Acid-Urea gels (AU, FIG. 9B) were used, on which loss of a positive charge upon lysine acetylation retards migration, producing a ladder of bands corresponding to integral changes in acetylation.
C3H 10T1/2 mouse fibroblasts were grown in DMEM with 10% FCS at 37° C. with 5% CO2. Confluent cultures were rendered quiescent in DMEM with 0.5% FCS for 18-20 h prior to treatment. […] Antibodies were used at the following concentrations: total H3 (1:10000; ab7834; Abcam); H4K12ac (1:2500; 06-761; Upstate). Rabbit anti-H3K9ac (1:10000) antibodies were generated in-house. Histones were isolated from cells by acid extraction, separated by SDS and acid-urea polyacrylamide gel electrophoresis and analyzed by Western blotting.

Mel-1 melanoma cells = test: combination with chemotherapy, total cell number; assay type: cell-based; conditions: 48 hours
Description: The cells were grown for 24 hours in medium. The cells were given fresh medium and either 1 μM of cisplatin or 200 μM of temozolamide was added. Total cell number was counted on Day 0, at 24 hours, and 48 hours after addition of cisplatin or temozolamide.
After 24 hours, the treated and mock-treated cells were given fresh medium, and the cells were treated with cisplatin or temozolamide for 48 hours.

WM983A melanoma cells = test: 3H-thymidine incorporation, WM983A; conditions: 20 μM, 24 hours
p300 HAT = biological target: T1, p300 HAT (Homo sapiens, UniProt Q09472, DEL1529-1560/M1652G); test: direct radioactive p300 HAT assay (14C-acetyl-CoA transfer to H4-15); assay type: biochemical
T1 construct: A variant of the HAT domain of p300 (residues 1287 to 1652) was expressed as a fusion; a C-terminal peptide corresponding to residues 1653-1666 of p300; made in house; host or cells: E. coli BL21(RIL)-DE3; C-terminal peptide by solid phase synthesis
T1 sequence (Q09472 with tags, fused parts or gaps DEL1529-1560/M1652G limits assumed): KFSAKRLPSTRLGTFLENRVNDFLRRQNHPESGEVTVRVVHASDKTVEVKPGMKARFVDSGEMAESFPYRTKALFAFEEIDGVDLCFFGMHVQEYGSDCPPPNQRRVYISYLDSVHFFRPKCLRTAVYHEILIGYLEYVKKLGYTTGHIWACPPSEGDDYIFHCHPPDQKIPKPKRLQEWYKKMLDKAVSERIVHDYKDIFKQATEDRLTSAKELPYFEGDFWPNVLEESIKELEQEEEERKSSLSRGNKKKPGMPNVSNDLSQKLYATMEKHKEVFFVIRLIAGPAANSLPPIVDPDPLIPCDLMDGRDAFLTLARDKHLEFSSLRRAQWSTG
Description: In this assay, production of ^14C-labeled Ac-H4-15 is monitored electrophoretically. Reactions were performed in 20 mM HEPES, pH 7.9, and contained 5 mM DTT, 80 μM EDTA, 40 μg/mL BSA, 100 μM H4-15, and 5 nM p300. […] Reactions were incubated at 30° C. for 10 minutes, initiated with addition of a 1:1 mixture of 12 C-acetyl-CoA and 14 C-acetyl-CoA to a final concentration of 20 μM, and allowed to run for 10 min at 30° C. Reactions are then quenched with addition of 14% SDS (w/v). Turnover was kept below 10%. All compounds were screened in duplicate. Samples were then loaded onto a 16% Tris-Tricine gel along with a BSA standard and run at 140 V for 90 minutes. Gels were washed and dried, and exposed in a PhosphorImager cassette for ˜2 days. Bands corresponding to Ac-H4-15 were then quantified using ImageQuant.
Reactions were performed in 20 mM HEPES, pH 7.9, and contained 5 mM DTT, 80 μM EDTA, 40 μg/mL BSA, 100 μM […], and 5 nM p300. Putative inhibitors were added over a range of concentrations, with DMSO concentration kept constant (<5%). Reactions were incubated at 30° C. for 10 minutes, then initiated with addition of a 1:1 mixture of ^12C-acetyl-CoA and ^14C-acetyl-CoA to 20 μM. After […] at 30° C., reactions were quenched with 14% SDS (w/v). All concentrations were screened in duplicate. Gels were run, washed, dried, and exposed to a PhosphorImager plate as described above, and production of Ac-H4-15 quantified. Data were fit to the following equation to obtain IC50s. […]

[2] = cells pre-treated with 2 μM C646 for 24 hours, then 1 μM cisplatin or 200 μM temozolamide
[3] = mock-treated cells, 1 μM cisplatin or 200 μM temozolamide

Structure (SMILES)	p300 HAT inhibition, result in words (analogs compared with C646) (p300 HAT)	melting point [°C]	other results
CC(/C=C/C(=O)NO)=C\[C@@H](C)C(=O)c1ccc(N(C)C)cc1 [TSA, Trichostatin A, reference compound]	–	–	acetylation of H3 and H4 ([1]; TSA 33 nM, 30 minutes): increased
N.N.[Cl][Pt][Cl] [cisplatin]	–	–	decrease in cell number (Mel-1 melanoma cells; [2]): 28%; decrease in cell number (Mel-1 melanoma cells; [3]): 35%
CC1=NN(c2ccc(C(=O)O)cc2)C(=O)C1Cc1ccc(-c2cc(C)c(C)cc2[N+](=O)[O-])o1 (stereo not shown) [Compound C37, 4-{4-[5-(4,5-Dimethyl-2-nitro-phenyl)-furan-2-ylmethyl]-3-methyl-5-oxo-4,5-dihydro-pyrazol-1-yl}-benzoic acid]	does not detectably block p300 HAT activity; also recorded: did not detectably block p300 HAT activity; also recorded: devoid of p300 HAT inhibitory activity	–	acetylation of H3 or H4, with and without TSA ([1]; 25 μM, 3 hours): no effect; sensitivity of cell line to compound (WM983A melanoma cells): resistant
COC(=O)c1cccc(N2N=C(C)/C(=C/c3ccc(-c4cc(C)c(C)cc4[N+](=O)[O-])o3)C2=O)c1 [Compound 6i, Methyl 3-(4,5-dihydro-3-methyl-4-((5-(4,5-dimethyl-2-nitrophenyl)furan-2-yl)methylene)-5-oxopyrazol-1-yl)benzoate]	well tolerated	205 to 207	–
COC(=O)c1ccc(N2N=C(C)C(=Cc3ccc(-c4cc(C)c(C)cc4[N+](=O)[O-])o3)C2=O)cc1 [Compound 6h, Methyl 4-(4,5-dihydro-3-methyl-4-((5-(4,5-dimethyl-2-nitrophenyl)furan-2-yl)methylene)-5-oxopyrazol-1-yl)benzoate]	–	214 to 216	weakening of p300 inhibitory potency compared with C646 (relative IC50) (p300 HAT; range of concentrations): > 15 fold
Cn1nnc2c(C(N)=O)ncn2c1=O [temozolamide]	–	–	decrease in cell number (Mel-1 melanoma cells; [2]): 31%; decrease in cell number (Mel-1 melanoma cells; [3]): 13%
CC1=NN(c2ccc(C(=O)O)cc2)C(=O)/C1=C\c1ccc(-c2cc(C)c(C)cc2C#N)o1 [Compound 6o, 4-(4,5-dihydro-4-((5-(4,5-dimethyl-2-benzonitrile)furan-2-yl)methylene)-3-methyl-5-oxopyrazol-1-yl)-benzoic acid]	well tolerated	295 to 297	–
CC1=NN(c2ccc(C(N)=O)cc2)C(=O)C1=Cc1ccc(-c2cc(C)c(C)cc2[N+](=O)[O-])o1 [Compound 6a, 4-(4,5-dihydro-3-methyl-4-((5-(4,5-dimethyl-2-nitrophenyl)furan-2-yl)methylene)-5-oxopyrazol-1-yl)benzamide]	well tolerated	273 to 275	–
